Experimental data reported in PMC3894558, “Chemical signatures and new drug targets for gametocytocidal drug development” (Scientific Reports, 2014).
Read-outs that look alike come from different tables or passages of the source.

Tested on: P. falciparum 3D7 gametocytes
Assay: alamarBlue gametocyte viability assay, strain 3D7
Format: cell-based, Plasmodium falciparum
Settings: for Max Resp: DMSO set at 0%, 100 nM epoxomicin set at -100%; call rule not given here
[1] = Malaria Box, stages III-V 3D7 gametocytes
[2] = Malaria Box, stages III-V 3D7 gametocytes, 11 concentrations, 1:3 dilution
[3] = Malaria Box, stages III-V 3D7 gametocytes, 11 concentrations, 1:3 dilution, read-out: IC50

Compound	IC50 [2]	IC50 [3] [µM]	IC50 (P. falciparum 3D7 gametocytes, mean of at least 3 independent experiments, read-out: Gametocyte IC50) [µM]	Max Resp (Malaria Box) [%]	Curve Class [1]	reduction of gametocyte viability (Malaria Box screen) [%]
CCCC(c1nnnn1C1CCCCC1)N1CCN(C(=O)c2ccco2)CC1.Cl (centres unmarked) [MMV666093]	Inactive	–	–	-10	4	–
CCn1c(SCC(=O)Nc2cc(C(F)(F)F)ccc2Cl)nc2ccccc2c1=O [MMV666103]	Inactive	–	–	-11	4	–
COCCN(C(=O)Cc1cccs1)C(C(=O)NCc1ccc(OC)cc1)c1ccc(C(C)C)cc1 (centres unmarked) [MMV666105]	Inactive	–	–	-42	-2.2	–
O=C(CCc1ccco1)NC1CCN(CC2(c3ccc(Cl)cc3)CCC2)CC1 [MMV666108]	Inactive	–	–	-51	-2.2	–
CC(=O)c1ccc(NC(=O)CSc2nc(-c3ccccc3Cl)ns2)cc1 [MMV666124]	Inactive	–	–	-33	-3	–
CC1=C(CC(=O)c2cccc([N+](=O)[O-])c2)C(=O)c2ccccc2C1=O [MMV666125]	–	0.833	< 1	-116	-1.1	> 75
CSC1=NC(=Nc2c(C)cccc2C)C2(CCC(C(C)(C)C)CC2)N1c1ccc(Cl)cc1 (centres unmarked) [MMV666596]	Inactive	–	–	14	4	–
CCCCCCc1cc2cc(-c3nc4ccccc4[nH]3)c(=Nc3ccccc3C)oc2cc1O [MMV666597]	–	2.09	–	-27	-1.4	–
CCOC(=O)c1c(C)n(-c2ccc(Cl)cc2)c2ccc(OC(=O)C=Cc3ccccc3)cc12 [MMV666600]	Inactive	–	–	2	4	–
CCOC(=O)C1=C(c2ccccc2)N=c2sc(=Cc3cc(C)n(-c4ccc(F)cc4)c3C)c(=O)n2C1c1cccc(OC)c1OC (centres unmarked) [MMV666601]	Inactive	–	–	-26	4	–
O=[N+]([O-])c1ccc(C=NNc2nc3ccccc3[nH]2)cc1 [MMV666607]	–	29.6	–	-57	-2.2	–

More lines, main results first:

IC50 [2]	IC50 [3] [µM]	IC50 (P. falciparum 3D7 gametocytes, mean of at least 3 independent experiments, read-out: Gametocyte IC50) [µM]	Compound	Max Resp (Malaria Box) [%]	Curve Class [1]	reduction of gametocyte viability (Malaria Box screen) [%]
Inactive	–	–	CCCc1c(C)nc2ccc(Br)cc2c1O [MMV666095]	28	4	–
Inactive	–	–	COc1ccc(C2=C(c3ccc(OC)cc3)C3(c4ccccc4)C(=O)C2(c2ccccc2)C2C(=O)N(c4ccc(C)cc4)C(=O)C23)cc1 (centres unmarked) [MMV666101]	1	4	–
–	29.6	–	CN(C)c1ccc(-c2nc3ccc(N)cc3[nH]2)cc1 [MMV666102]	-75	-2.2	–
Inactive	–	–	O=C(NC1CCCCC1)C(c1cccs1)N(CCc1ccccc1)C(=O)c1ccco1 (centres unmarked) [MMV666106]	-29	4	–
–	5.26	–	CCOC(=O)C1(Cc2ccccc2)CCN(Cc2cccc(OC)c2O)CC1 [MMV666109]	-58	-1.2	–
–	29.6	–	C=C(C)CCC(C)N1CCC(N2CCC(C(=O)NCCc3ccccc3)CC2)CC1 (centres unmarked) [MMV666110]	-73	-2.2	–
–	0.662	–	Oc1ccccc1CN1CCC2(CCCN(Cc3ccccc3F)C2)C1 (centres unmarked) [MMV666116]	-46	-1.2	–
Inactive	–	–	CC(C)(C)c1ccc(C(=O)Nc2c3c(nn2-c2cccc(Cl)c2)CSC3)cc1 [MMV666123]	-6	4	–
Inactive	–	–	O=c1nc(C=Cc2ccc(Br)cc2)oc2ccccc12 [MMV666599]	4	4	–
–	7.43	–	CCOC(=O)C1=C(C)N=c2sc(=Cc3ccccc3O)c(=O)n2C1c1ccc(OC)c2ccccc12 (centres unmarked) [MMV666604]	-68	-1.2	–
Inactive	–	–	COc1ccccc1C(=O)ON=C(N)Cc1cccc2ccccc12 [MMV666686]	-50	-2.2	–
